From the Kinase Knowledgebase extract (Sharma et al. 2016)

Molecular target: CDK2 (UniProt P24941)
Experiment: Enzyme Assay

CC(C)n1c(=O)ccc2cnc(Nc3ccc(N4CCNCC4)cc3)nc21
IC50: 84 nM

CC(=O)c1c(C)c2cnc(Nc3ccc(N4CCNCC4)cc3)nc2n(C2CCCC2)c1=O
IC50: 233 nM

O=c1c(Cc2ccccc2)cc2cnc(Nc3ccc(N4CCNCC4)cc3)nc2n1C1CCCC1
IC50: > 5000 nM

CC(C)COc1cc2cnc(Nc3ccc(N4CCNCC4)cc3)nc2n(C2CCCC2)c1=O
IC50: 3150 nM

O=c1c(Br)cc2cnc(Nc3ccccc3)nc2n1C1CCCC1
IC50: 80 nM

O=c1ccc2cnc(Nc3ccc(N4CCNCC4)cc3)nc2n1C1CCCCC1
IC50: 119 nM

CCc1cc2cnc(Nc3ccc(N4CCC(O)CC4)cc3)nc2n(C2CCCC2)c1=O
IC50: 179 nM

Nc1cc2cnc(Nc3ccc(N4CCNCC4)cc3)nc2n(C2CCCC2)c1=O
IC50: 95 nM

CCOCCOc1cc2cnc(Nc3ccc(N4CCNCC4)cc3)nc2n(C2CCCC2)c1=O
IC50: > 5000 nM

CCOC(=O)c1cc2cnc(Nc3ccc(N4CCNCC4)cc3)nc2n(C2CCCC2)c1=O
IC50: 5950 nM

Cc1c(Br)c(=O)n(C2CCCC2)c2nc(Nc3ccc(N4CC(C)NC(C)C4)cc3)ncc12 (stereo not drawn)
IC50: 1860 nM

O=c1ccc2cnc(Nc3ccc(N4CCNCC4)cc3)nc2n1C1CCCC1
IC50: 24 nM

CC(=O)c1cc2cnc(Nc3ccc(N4CCNCC4)cc3)nc2n(C2CCCC2)c1=O
IC50: 556 nM

O=c1c(F)cc2cnc(Nc3ccc(N4CCNCC4)cc3)nc2n1C1CCCC1
IC50: 139 nM

Cc1c(Br)c(=O)n(C2CCCC2)c2nc(Nc3ccc(N4CCNC(C)(C)C4)cc3)ncc12
IC50: 1330 nM

Cc1cc2cnc(Nc3ccc(N4CCNCC4)cc3)nc2n(C2CCCC2)c1=O
IC50: 59 nM

CCc1cc2cnc(Nc3ccc(N4CCNCC4)cc3)nc2n(C2CCCC2)c1=O
IC50: 142 nM

CCOCCc1cc2cnc(Nc3ccc(N4CCNCC4)cc3)nc2n(C2CCCC2)c1=O
IC50: 205 nM
